Molecules are shown by their SMILES.

The experiment concerns HepG2. Nature of the experiment: Induction of apoptosis in human HepG2 cells assessed as apoptotic cells at 50 uM by Annexin V-FITC/propidium iodide staining based flow cytometry relative to control. Format: functional. In general terms: Flow cytometry measures light scatter and fluorescence of single cells or particles in a stream.
In the case of `C[C@@H]1O[C@@H](C=C=CBr)C[C@H]2O[C@@H](C[C@H]2Cl)[C@@H](Br)C[C@@H]2O[C@@H]12`, the Activity is on record as >70%.

In the case of `C[C@@H]1O[C@@H](C=C=CBr)C[C@H]2O[C@@H](C[C@H]2Cl)[C@@H](Br)C[C@H]2O[C@H]12`, the Activity is >65%.

In the case of `C[C@H]1/C=C/C[C@H](Br)[C@@H]2C[C@@H](Cl)[C@@H](C[C@H](C=C=CBr)O1)O2`, the Activity turned out to be 47%.

The values above are taken from ChEMBL document CHEMBL4477173, “Additional Insights into the Obtusallene Family: Components of Laurencia marilzae” (2016).
